This note sets out measurements from PubChem BioAssay (NCI).

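Growth conditions: 96-well plates. Treatment: test compound, 48 hours, 5 concentrations. Analysis: linear interpolation between bracketing concentrations; unreached endpoints set to highest concentration. GI50 = concentration required for 50% inhibition of growth. Definition used: TGI = concentration required for complete inhibition of growth.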 Some results are limits rather than exact numbers.

Among the test systems are NCI-H226 lung; HCT-116 colon; SF-539 CNS; HL-60(TB) leukemia; 786-0 renal; ACHN renal; SK-MEL-28 melanoma; IGROV1 ovarian; RXF 393 renal; SK-OV-3 ovarian.
What all share (assay): inhibition of tumour cell growth, NCI panel, 48 h

For `c1cnc2c(c1)-n1cccc1C1(CCSCC1)NN2`, the TGI in the assay on NCI-H226 lung, in the assay with HCT-116 colon, with SF-539 CNS, in the assay on HL-60(TB) leukemia, in the assay with 786-0 renal and in the assay with ACHN renal was above 100 µM in each case. Besides, the TGI in the assay with SK-MEL-28 melanoma was above 100 µM.
Regarding `CCCC(=O)c1c(NOC2OC(COC(C)=O)C(OC(C)=O)C(OC(C)=O)C2OC(C)=O)nc(OC)n(C)c1=O` (stereo not drawn), the TGI in the assay with NCI-H226 lung, in the assay on HCT-116 colon, in the assay on SF-539 CNS, in the assay on IGROV1 ovarian, with 786-0 renal and with ACHN renal was above 100 µM throughout. The TGI in the assay with SK-MEL-28 melanoma and in the assay on RXF 393 renal was above 100 µM throughout.
Turning to `Nc1ccc(C(=O)N/C(=C\C=C\c2ccco2)c2nc3[nH]c(=S)[nH]c(=O)c3[nH]2)cc1`, the TGI with SF-539 CNS, in the assay on IGROV1 ovarian, in the assay with 786-0 renal, with ACHN renal, with SK-OV-3 ovarian and with SK-MEL-28 melanoma was above 100 µM in each case. The TGI in the assay with RXF 393 renal was above 100 µM.
Take `CCN(CC)CCC1CC/C(=C\c2ccc(OC)cc2)C1=O` (stereo not drawn): the TGI in the assay on NCI-H226 lung, in the assay with HCT-116 colon, with SF-539 CNS, with HL-60(TB) leukemia, with IGROV1 ovarian and with 786-0 renal was above 100 µM throughout. The TGI in the assay with ACHN renal, in the assay with SK-MEL-28 melanoma and with RXF 393 renal was above 100 µM in each case.
With `S=C(Nc1ccc(-c2nc3ccccc3[nH]2)cc1)NC1CCCCC1`, the GI50 was 19.6 µM in the assay with NCI-H226 lung; 20.7 µM in the assay on HCT-116 colon; 22.6 µM in the assay on SF-539 CNS; 46.9 µM in the assay on HL-60(TB) leukemia; 35.2 µM with IGROV1 ovarian; 33.2 µM in the assay with 786-0 renal. Further, the GI50 was 18.1 µM with ACHN renal, 30.6 µM in the assay on SK-MEL-28 melanoma and 15.5 µM in the assay on RXF 393 renal. Besides, the TGI with NCI-H226 lung stood at 48.9 µM; in the assay with HCT-116 colon, 39.5 µM; in the assay with SF-539 CNS, 48.5 µM; in the assay on ACHN renal, 42.2 µM; in the assay on RXF 393 renal, 74 µM.
Regarding `O=C(Nc1ccccc1)c1ccc(Cl)c([N+](=O)[O-])c1`, the TGI was 68.4 µM in the assay on NCI-H226 lung; 60.5 µM in the assay on SF-539 CNS; 54.3 µM in the assay on IGROV1 ovarian; 20.8 µM in the assay with 786-0 renal; 65 µM in the assay on SK-OV-3 ovarian; 61.4 µM with SK-MEL-28 melanoma. In the assay with RXF 393 renal, this compound had a TGI of 75.5 µM.
Turning to `CC(=O)O[C@H]1C(N(C)C(=O)c2ccccc2)CC[C@]2(C)C3CC[C@@]4(C)C(CC(O)[C@@H]4C(C)N(C)C)[C@@H]3CCC12` (stereo partly drawn), the TGI in the assay with NCI-H226 lung, with HCT-116 colon, in the assay on SF-539 CNS, with HL-60(TB) leukemia, in the assay with IGROV1 ovarian and in the assay on 786-0 renal was above 100 µM in each case. In addition, the TGI in the assay on ACHN renal, with SK-OV-3 ovarian and in the assay on SK-MEL-28 melanoma was above 100 µM in each case.
Regarding `C=CCNC(=S)N1CC(C)C(=O)Nc2ccccc21` (stereo not drawn), the TGI in the assay on NCI-H226 lung, in the assay with HCT-116 colon, in the assay on SF-539 CNS, in the assay on HL-60(TB) leukemia, with IGROV1 ovarian and in the assay with 786-0 renal was above 100 µM in each case. For the same compound, the TGI in the assay with ACHN renal, in the assay on SK-MEL-28 melanoma and in the assay with RXF 393 renal was above 100 µM in each case.
Consider `CC(=O)NC1=N/C(=C/c2cc([N+](=O)[O-])ccc2O)CN1C`, for which the TGI in the assay on NCI-H226 lung, in the assay on HCT-116 colon, in the assay on SF-539 CNS, in the assay on HL-60(TB) leukemia, in the assay on IGROV1 ovarian and with 786-0 renal was above 100 µM each time. Also, the TGI in the assay with ACHN renal, in the assay on SK-OV-3 ovarian and in the assay with SK-MEL-28 melanoma was above 100 µM throughout.
Turning to `CCN(CC)c1ccc(N=Nc2ccc(-c3nc4cccnc4o3)cc2)cc1`, the TGI in the assay on NCI-H226 lung, in the assay with HCT-116 colon, with SF-539 CNS, with HL-60(TB) leukemia, with IGROV1 ovarian and in the assay on 786-0 renal was above 100 µM throughout. The TGI in the assay with ACHN renal, in the assay with SK-MEL-28 melanoma and in the assay with RXF 393 renal was above 100 µM each time.
With `C=CCn1c(C)nc2cc(Nc3nc(Nc4ccc5nc(C)n(CC=C)c5c4)c4ccccc4n3)ccc21`, the GI50 in the assay with NCI-H226 lung is 2.02 µM; in the assay on SF-539 CNS, 1.03 µM; in the assay on HL-60(TB) leukemia it was 1.7 µM; with 786-0 renal, 0.312 µM; with ACHN renal, 0.292 µM; in the assay with SK-MEL-28 melanoma, 1.41 µM. For the same compound, the GI50 in the assay on RXF 393 renal was 0.354 µM. Besides, the TGI in the assay on NCI-H226 lung is 4.77 µM; in the assay on SF-539 CNS it was 2.22 µM; in the assay on HL-60(TB) leukemia it was 4.13 µM; in the assay with 786-0 renal it was 1.08 µM; with ACHN renal, 1.01 µM; in the assay with SK-MEL-28 melanoma it was 3.16 µM. For the same compound, the TGI in the assay on RXF 393 renal came out at 1.37 µM.
Take `Nc1c(C(=O)c2ccccc2)sc2nc(-c3cccs3)ccc12`: the GI50 in the assay with NCI-H226 lung was 2.11 µM; in the assay on HCT-116 colon it was 0.0533 µM; in the assay with SF-539 CNS, 0.25 µM; with IGROV1 ovarian, 1.21 µM; in the assay with 786-0 renal, 0.725 µM; in the assay with ACHN renal it was 0.863 µM. The GI50 is 0.389 µM in the assay on SK-OV-3 ovarian, 1.49 µM in the assay on SK-MEL-28 melanoma and 0.317 µM in the assay on RXF 393 renal. Moreover, the TGI turned out to be 12.5 µM with NCI-H226 lung; 1.96 µM in the assay on HCT-116 colon; 1.24 µM with SF-539 CNS; 18.8 µM in the assay on IGROV1 ovarian; 7.67 µM in the assay with 786-0 renal; 13.3 µM in the assay on ACHN renal. In addition, the TGI in the assay with SK-OV-3 ovarian is 18.4 µM; in the assay with SK-MEL-28 melanoma, above 100 µM; in the assay with RXF 393 renal it was 1.63 µM.
For `O=C(Oc1ccc(O)c2c(=O)n3c(cc12)[nH]c1ccccc13)c1ccccc1`, the GI50 is 18.9 µM in the assay on NCI-H226 lung; 11.3 µM in the assay with HCT-116 colon; 6.63 µM in the assay with SF-539 CNS; 21.6 µM in the assay on HL-60(TB) leukemia; 10.6 µM in the assay with IGROV1 ovarian; 14.4 µM in the assay on 786-0 renal. In addition, the figures for the GI50 in the assay with ACHN renal and in the assay on SK-MEL-28 melanoma were 7.55 µM and 24.9 µM, respectively. The TGI was 64.2 µM in the assay with NCI-H226 lung; 23.5 µM in the assay with HCT-116 colon; 36.6 µM with SF-539 CNS; 51.7 µM in the assay with HL-60(TB) leukemia; 24.6 µM with IGROV1 ovarian; 32.5 µM in the assay with 786-0 renal. Further, the TGI with ACHN renal amounted to 23.6 µM; in the assay on SK-MEL-28 melanoma, 76.4 µM; with RXF 393 renal, 0.505 µM.
Take `CCOC(=O)CCC(=O)C1c2cccc(O)c2C(=O)c2c(O)cccc21`: the TGI in the assay on HCT-116 colon came to 2.6 µM; in the assay with SF-539 CNS, 1.63 µM; in the assay with HL-60(TB) leukemia, 0.657 µM; in the assay on IGROV1 ovarian, 4.72 µM; with 786-0 renal it was 3.26 µM; with ACHN renal it was 2.9 µM. Also, the TGI in the assay on SK-MEL-28 melanoma stood at 2.68 µM; in the assay on RXF 393 renal, 2.08 µM.
Turning to `CC(=O)N/C(=C\c1ccc(/C=C(\NC(C)=O)c2nc3ccc(Cl)cc3[nH]2)cc1)c1nc2ccccc2[nH]1`, the TGI with NCI-H226 lung, in the assay with HCT-116 colon, in the assay with SF-539 CNS, in the assay with IGROV1 ovarian, in the assay with 786-0 renal and with ACHN renal was above 100 µM in each case. Moreover, the TGI in the assay with SK-OV-3 ovarian and in the assay with SK-MEL-28 melanoma was above 100 µM in each case.
On to `O=C(Nc1ccc(Cl)cc1)Nc1ccc(Cl)c(Cl)c1`, for which the GI50 in the assay on HCT-116 colon was 3.5 µM; in the assay on SF-539 CNS, 2.96 µM; in the assay with HL-60(TB) leukemia, 2.84 µM; in the assay on IGROV1 ovarian, 4.78 µM; with 786-0 renal it was 4.43 µM; in the assay with ACHN renal, 3.71 µM. Besides, the GI50 in the assay with SK-MEL-28 melanoma was 6.07 µM. Also, the TGI with HCT-116 colon was above 100 µM; in the assay with SF-539 CNS it was 60.4 µM; in the assay with HL-60(TB) leukemia it was 7.69 µM; in the assay with IGROV1 ovarian, above 100 µM; in the assay with 786-0 renal it was above 100 µM; in the assay on ACHN renal it was above 100 µM. For the same compound, the TGI in the assay on SK-MEL-28 melanoma is above 100 µM.
Consider `CCN(CC)CCCCC1CCN(CC(=O)N2CC(C)C(=O)Nc3ccccc32)CC1` (stereo not drawn), for which the TGI in the assay on NCI-H226 lung, in the assay on HCT-116 colon, in the assay on HL-60(TB) leukemia, in the assay on IGROV1 ovarian, with 786-0 renal and with ACHN renal was above 100 µM each time. The TGI in the assay on SK-OV-3 ovarian and with SK-MEL-28 melanoma was above 100 µM each time.
On to `Cc1cc2nc3c(C(OC4OC(CO)C(O)C(O)C4O)C(O)CO)nn(-c4ccccc4)c3nc2cc1C` (stereo not drawn), for which the TGI in the assay on HCT-116 colon, in the assay on SF-539 CNS, in the assay with 786-0 renal, with ACHN renal, with SK-OV-3 ovarian and in the assay on SK-MEL-28 melanoma was above 100 µM throughout. The TGI in the assay with RXF 393 renal is above 100 µM.
On to `N#CC(C#N)=C(N)/C(C#N)=C\c1ccnc2ccccc12`, for which the TGI in the assay with HCT-116 colon is 12.4 µM; in the assay with SF-539 CNS, 31.1 µM; with HL-60(TB) leukemia it was 4.69 µM; with IGROV1 ovarian it was 49.5 µM; in the assay with 786-0 renal, 37.2 µM; with ACHN renal it was above 100 µM. The figures for the TGI in the assay with SK-MEL-28 melanoma and in the assay on RXF 393 renal were 40.2 µM and 35.3 µM, respectively.
Take `C=CCc1cc2cccc(OC)c2oc1=O`: the TGI with NCI-H226 lung, in the assay on HCT-116 colon, in the assay with SF-539 CNS, in the assay on HL-60(TB) leukemia, with IGROV1 ovarian and in the assay with 786-0 renal was above 100 µM in each case. Also, the TGI with ACHN renal and in the assay on SK-MEL-28 melanoma was above 100 µM throughout.
